Several values for one entry are separate records, joined by “and”; a condition that tells them apart may be missing. Identical values can stand only once. Like-named read-outs stand apart in the source and are kept apart here.
Columns and labels:
RPMI 8226 = experiment: Cell growth inhibition, resazurin, 48 h; settings: for EC50: Homo sapiens, RPMI-8226, 48 h, RPMI 8226, 48 h drug exposure; for % cytotoxicity: RPMI 8226
Protocol: (§1) RPMI 8226 (CCL-155), HT-29 (HTB-38), and B16-F10 (CRL-6475) cells were purchased from ATCC. RPMI 8226 cells were maintained in RPMI 1640 media supplemented with 10% (v/v) FBS, 2 mM L-glutamine, 1 mM sodium pyruvate and Penicillin/Streptomycin at 100 IU/ml and 100 μg/ml, respectively. HT-29 cells were maintained in McCoys 5A supplemented with 10% (v/v) FBS, 2 mM L-glutamine, 1 mM sodium pyruvate, 1% (v/v) non-essential amino acids, 10 mM HEPES and Penicillin/Streptomycin at 100 IU/ml and 100 μg/ml, respectively. B16-F10 cells were maintained in DMEM supplemented with 10% (v/v) FBS, 2 mM L-glutamine, 10 mM HEPES and Penicillin/Streptomycin at 100 IU/ml and 100 μg/ml, respectively.
(§2) RPMI 8226 cells were seeded at 2×10^4 cells/well in 90 μl RPMI media containing 10% (v/v) FBS or 1% (v/v) FBS into 96 well black-walled, clear-bottom tissue culture plates. […] Formulae II-16, II-17 and Formula II-18 were serially diluted in media containing 1% or 10% FBS and added in triplicate to the test wells. […] The final concentration of Formula II-18 ranged from 2 μM to 630 pM.

U266 = experiment: Cell growth inhibition, resazurin, 48 h; type: cell-based, human; settings: U266, 48 h drug exposure
MDA-MB-231 = experiment: Cell growth inhibition, resazurin, 48 h; type: cell-based, human; settings: MDA-MB-231, 48 h drug exposure
HT-29 = experiment: Cell growth inhibition, resazurin, 48 h; type: cell-based, human; settings: HT-29, 48 h drug exposure
Protocol: as §1, §2

PC-3 = experiment: Cell growth inhibition, resazurin, 48 h
MES-SA/Dx5 = experiment: Cell growth inhibition, resazurin, 48 h; settings: for EC50: Homo sapiens, MES-SA/Dx5, 48 h
Protocol: (§3) Concentrations ranging from 6.32 μM to 2 nM were tested for II-2 and II-4.

MES-SA = experiment: Cell growth inhibition, resazurin, 48 h; settings: for EC50: Homo sapiens, 48 h
Protocol: as §3

OVCAR-3 = experiment: Cell growth inhibition, resazurin, 48 h; type: cell-based, human; settings: OVCAR-3, 48 h drug exposure
NCI-H292 = experiment: Cell growth inhibition, resazurin, 48 h; type: cell-based, human; settings: NCI-H292, 48 h drug exposure
HL-60 = experiment: Cell growth inhibition, resazurin, 48 h; settings: for EC50: HL-60, 48 h drug exposure
Protocol: (§4) The DNA binding agent Mitoxantrone was included as a control, as HL-60/MX2 cells are reported to be resistant to this chemotherapeutic agent (Harker W. G. et al. 1989).
as §3

HL-60/MX2 = experiment: Cell growth inhibition, resazurin, 48 h; settings: for EC50: HL-60/MX2, 48 h drug exposure
Protocol: as §4, §3

Jurkat = experiment: Cytotoxicity against Jurkat cells; type: cell-based, human
[1] = tested on: LeTx-induced cytotoxicity of RAW264.7 cells; experiment: cells; type: cell-based, murine
[2] = Maximum Tolerated Dose (MTD) determination; type: in vivo, female BALB/c mice
Text: In vivo studies were designed to determine the MTD of Salinosporamide A when administered intravenously to female BALB/c mice.
Animals were observed daily for clinical signs and were weighed individually twice weekly until the end of the experiment (maximum of 14 days after the last day of dosing).

Thrombin = Thrombin (Homo sapiens, UniProt P00734); experiment: Specificity: inhibition of other proteolytic enzymes; type: biochemical
HL-60(TB) = settings: Leukemia
[3] = tested on: MM.1R and Dox-40 cell lines, patient-derived multiple myeloma cells
[4] = tested on: Caspase-3 activity in Jurkat cells; experiment: Caspase-3 activity assay (EnzChek); type: cell-based, human; settings: EC50 concentration, 19 hours
Protocol: Jurkat cells were plated at 2×10^6 cells/3 mL per well in a 6-well plate and incubated at 37° C., 5% (v/v) CO2 and 95% (v/v) humidity. […] Bhalla, et al., Blood 82:3133 (1993). […] Cells treated with 0.25% DMSO served as the negative control. The cells were collected by centrifugation and the media removed. Cell pellets were processed for the Caspase-3 activity assay as described in the manufacturer's protocol (EnzChek Caspase-3 Assay Kit from Molecular Probes (E-13183; see Appendix G, which form a part of this application and is also available at hypertext transfer protocol on the worldwide web at “probes.com/media/pis/mp13183.pdf.”. In brief, cell pellets were lysed on ice, mixed with the EnzChek Caspase-3 components in a 96-well plate, and then incubated in the dark for 30 minutes prior to reading fluorescence of cleaved benzyloxycarbonyl-DEVD-AMC using a Packard Fusion with λex=485 nm and λem=530 nm filters. Protein concentrations for lysates were determined using the BCA Protein Assay Kit (Pierce) and these values were used for normalization.

PARP in Jurkat cells = experiment: PARP cleavage, western blot; type: cell-based, human; settings: 100 nM Salinosporamide A 2-24 hrs; […] nM Staurosporine 4 hrs
PANC-1 = experiment: Cell growth inhibition, resazurin, 48 h; type: cell-based; settings: Homo sapiens; PANC-1, 48 h drug exposure

Work on C[C@H]1C(=O)N[C@@]2([C@@H](O)[C@@H]3C=CCCC3)C(=O)O[C@@]12C [Formula II-20] yielded an EC50 (RPMI 8226) of 8.51 ± 3.26 µM, an EC50 (U266; Homo sapiens, U-266, 48 h) of 310 nM and an EC50 (U266) of 442 nM.
With CC[C@H]1C(=O)N[C@@]2([C@@H](O)[C@@H]3C=CCCC3)C(=O)O[C@@]12C [Formula II-17] the EC50 (MDA-MB-231; Homo sapiens, read-out: EC50) was 5900 ± 601 nM, the EC50 (HT-29; Homo sapiens, read-out: EC50) was > 20000 nM and the EC50 (PC-3; Homo sapiens, PC-3, 48 h) was > 20000 nM. The EC50 (MES-SA/Dx5; MES-SA/Dx5, 48 h drug exposure) was 9.45 µM, the EC50 (MES-SA; 48 h drug exposure) was 9.23 µM and the EC50 (OVCAR-3; Homo sapiens, read-out: EC50) was > 20000 nM. For the same compound, the EC50 (NCI-H292; Homo sapiens, read-out: EC50) was > 20000 nM, the EC50 (HL-60; Homo sapiens, HL-60, 48 h) was > 20000 nM and the EC50 (HL-60/MX2; Homo sapiens, HL60/MX2, 48 h) was > 20000 nM.
For C[C@@]12OC(=O)[C@]1([C@@H](O)[C@@H]1C=CCCC1)NC(=O)[C@@H]2CCCl [Formula II-16, Salinosporamide A], the EC50 (Jurkat; Homo sapiens, Jurkat) was 10 nM, the “% max cell kill” value (Jurkat; Jurkat cells) was 97% and the EC50 (MDA-MB-231; Homo sapiens, MDA-MB-231, 48 h) was 67 nM. It also gave an EC50 (MDA-MB-231) of 87 ± 40 nM, an EC50 [1] of 3.6 nM and a cell-viability [1] of 82%. The “increase in the viability of LeTx-treated cells compared to LeTx treatment alone” value [1] was 10 fold, the EC50 ([1]; Mus musculus, RAW264.7) was < 4 nM and the well tolerated dose ([2]; i.v. daily for five consecutive days) was “up to 0.1 mg/kg”. The tolerated dose ([2]; single intravenous dose) was “up to 0.25 mg/kg”, the EC50 (HT-29) was 40 ± 26 nM and the EC50 (HT-29; Homo sapiens, HT-29, 48 h) was 47 nM. For the same compound, the “% cytotoxicity” value (PC-3; PC-3) was 88% and 89%, the EC50 (PC-3; PC-3, 48 h drug exposure) was 64 ± 26 nM and the EC50 (MES-SA/Dx5) was 0.023 ± 0.001 µM. For the same compound, the “% cytotoxicity” value (MES-SA/Dx5; MES-SA/Dx5) was 92 ± 2%, the “% cytotoxicity” value (MES-SA) was 94 ± 1% and the EC50 (MES-SA) was 0.02 ± 0.005 µM. The EC50 (Thrombin) was > 200 µM, the “Log10 G150” value (HL-60(TB)) was <-8.00 Molar and the “Log10 TGI” value (HL-60(TB)) was -4.32 Molar. For the same compound, the EC50 (RPMI 8226) was 0.0086 ± 0.0019 µM, the “% cytotoxicity” value (RPMI 8226; listed as II-16) was 94 ± 0% and the “% cytotoxicity” value (RPMI 8226; listed as Salinosporamide A) was 94 ± 1%. The “activity against drug resistant multiple myeloma” value [3] was “active against MM.1R and Doxorubicin-resistant Dox-40 cell lines”, the EC50 (U266; Homo sapiens, U-266, 48 h) was 4.7 ± 0.7 nM and the EC50 (OVCAR-3; Homo sapiens, OVCAR-3, 48 h) was 69 nM. For the same compound, the EC50 (OVCAR-3) was 49 ± 31 nM, the Caspase-3 activity [4] was “activation of Caspase-3” and the PARP cleavage (PARP in Jurkat cells) was “cleavage of PARP within the Jurkat cells in a time-dependent fashion”. The EC50 (NCI-H292; Homo sapiens, NCI-H292, 48 h) was 97 nM, the EC50 (NCI-H292) was 66 ± 29 nM and the “% cytotoxicity” value (HL-60; HL-60) was 88% and 91%. The EC50 (HL-60) was 30 nM, the EC50 (HL-60; Homo sapiens, HL-60, 48 h) was 27 nM and the “% cytotoxicity” value (HL-60/MX2; HL-60/MX2) was 84% and 89%. It also gave an EC50 (HL-60/MX2) of 25 nM, an EC50 (HL-60/MX2; Homo sapiens, HL60/MX2, 48 h) of 28 nM and an EC50 (PANC-1) of 60 nM.

Source: patent US7572606B1 (Nereus Pharmaceuticals, Inc., priority 2005, dated 2009)
